These are literature values, as cited in patent US20200108015A1, “Sustained Release Nitric Oxide in Intestinal Tract” (SKLAR PHARMA LLC, priority 2018, published 2020).

Like-named read-outs stand apart in the source and are kept apart here.

In the case of `NC(=O)NO` [Hydroxyurea, hydroxyurea], where the note is “in vivo”, the half life result was “two”.

Take `CC(=O)Oc1ccccc1C(=O)O` [aspirin]: where the note is “in the blood stream”, the half life result is reported as “about 30 minutes”.
